Patent US20090069302A1 (SMITHKLINE BEECHAM CORPORATION, priority 2006, published 2009)

Target: T1, AXOR109 (Homo sapiens, UniProt Q8TDU6)
T1 construct: expressed in transfected cells; host or cells: melanophore cells, transfected by electroporation
T1 sequence (Q8TDU6 1-330): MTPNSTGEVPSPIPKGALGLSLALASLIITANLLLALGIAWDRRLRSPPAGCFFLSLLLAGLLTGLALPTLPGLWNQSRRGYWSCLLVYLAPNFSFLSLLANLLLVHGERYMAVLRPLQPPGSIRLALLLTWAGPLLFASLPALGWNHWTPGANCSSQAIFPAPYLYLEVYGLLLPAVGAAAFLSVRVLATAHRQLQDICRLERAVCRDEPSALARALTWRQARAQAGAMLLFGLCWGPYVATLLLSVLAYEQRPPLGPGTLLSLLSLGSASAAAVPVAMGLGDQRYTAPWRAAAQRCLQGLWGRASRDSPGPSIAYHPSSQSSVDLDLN
Experiment: Human AXOR109/Melanophore Assay
Type: cell-based
Conditions: melanophore assay; for Emax: 1 h, normalized to alpha-MSH system max; for EC50: AXOR109 transfected melanophores
Method: AXOR109 is a Gs-coupled receptor and therefore increases intracellular cAMP leading to melanosome dispersion. Compounds of the present invention were characterized in a melanophore assay as described in Jayawickreme C K, et al., Current Protocols in Pharmacology (2005) 12.9.1-12.9.16. Briefly, melanophore cells are transfected by electroporation with AXOR109 expressing cDNA. Cells are then plated in 384 well clear bottom plates at 8E3 cells per well in 50 μl of conditioned fibroblast media (CFM). Compounds to be tested are serially diluted 3-fold in DMSO and further diluted 1:100 with melanophore assay buffer (MAB)+10 nM Melatonin to yield 11 point concentration response curves. Following 2 hour incubation with MAB+1% DMSO+10 nM Melatonin, initial transmittance is read on a TwisterII/Spectramax plate reader. Compounds are then added to the cells and incubated for 1 hour, and final transmittance is read as before. Results are compared to vehicle (MAB+1% DMSO+10 nM Melatonin) and to a positive control (MAB+1% DMSO+10 nM Melatonin+200 nM alpha-MSH). Data are calculated for each well as follows: 1-(Transmitance-final/Transmitance-initial). Each well result is then normalized to alpha-MSH, the system max control for Gs/Gq coupled receptors using the following equation: (ObjX−Control1)/(Control2−Control1)*100. The percent system max is used to generate the pEC50 using the equation: y=((Vmax*x̂n)/(K̂n+x̂n))+Y2. Acceptable Z-prime values should be >0.4. Compounds of the present invention have a pEC50≧5.0 in the above described assay.

Structure (SMILES) | Emax [%] | EC50 [nM]
COc1cccc(S(=O)(=O)N(C)CCN(C)S(=O)(=O)c2ccc(OC)c(OC)c2)c1 [Example 10, N-methyl-N-[2-(methyl{[3-(methyloxy)phenyl]sulfonyl}amino)ethyl]-3,4-bis(methyloxy)benzenesulfonamide] | 76 to 100 | 126 to 1000
COc1ccc(S(=O)(=O)N(C)CCN(C)S(=O)(=O)c2ccc(OC)c(OC)c2)cc1F [Example 11, N-{2-[{[3,4-bis(methyloxy)phenyl]sulfonyl}(methyl)amino]ethyl}-3-fluoro-N-methyl-4-(methyloxy)benzenesulfonamide] | 0 to 50 | 126 to 1000
COc1ccc(S(=O)(=O)N2C[C@@H](C)N(S(=O)(=O)c3ccc(OC)c(OC)c3)[C@@H](C)C2)cc1OC [Example 79, cis-1,4-bis{[3,4-bis(methyloxy)phenyl]sulfonyl}-2,6-dimethylpiperazine] | > 100 | < 126
COc1ccc(S(=O)(=O)N2CCN(S(=O)(=O)c3ccc(OC)c(OC)c3)C2=O)cc1OC [Example 23, 1,3-bis{[3,4-bis(methyloxy)phenyl]sulfonyl}-2-imidazolidinone] | 0 to 50 | 1260 to 10000
CCN(C[C@@H]1CCCN1S(=O)(=O)c1ccc(OC)c(OC)c1)S(=O)(=O)c1ccc(OC)c(OC)c1 [Example 95, N-[((2S)-1-{[3,4-bis(methyloxy)phenyl]sulfonyl}-2-pyrrolidinyl)methyl]-N-ethyl-3,4-bis(methyloxy)benzenesulfonamide] | 76 to 100 | 126 to 1000
COc1ccc(S(=O)(=O)NCC(C)N(C)S(=O)(=O)c2ccc(OC)c(OC)c2)cc1OC (centres unmarked) [Example 66, N-[2-({[3,4-bis(methyloxy)phenyl]sulfonyl}amino)-1-methylethyl]-N-methyl-3,4-bis(methyloxy)benzenesulfonamide] | 51 to 75 | 1260 to 10000
COc1ccc(S(=O)(=O)N(C)CCN(C)S(=O)(=O)c2ccc3c(c2)OCCN3C)cc1OC [Example 12, N-methyl-N-{2-[{[3,4-bis(methyloxy)phenyl]sulfonyl}(methyl)amino]ethyl}-4-methyl-3,4-dihydro-2H-1,4-benzoxazine-7-sulfonamide] | 76 to 100 | 1260 to 10000
COc1ccc(S(=O)(=O)N2CCN(S(=O)(=O)c3ccc(OC)c(OC)c3)[C@@H](C)[C@H]2C)cc1OC [Example 40, 1,4-bis{[3,4-bis(methyloxy)phenyl]sulfonyl}-2,3-dimethylpiperazine] | 51 to 75 | 126 to 1000
COc1ccc(S(=O)(=O)NCCN(C)S(=O)(=O)c2ccc(OC)c(OC)c2)cc1OC [Example 42, N-[2-({[3,4-bis(methyloxy)phenyl]sulfonyl}amino)ethyl]-N-methyl-3,4-bis(methyloxy)benzenesulfonamide] | 51 to 75 | 1260 to 10000
COc1ccc(S(=O)(=O)N(C)C(C)C(C)N(C)S(=O)(=O)c2ccc(OC)c(OC)c2)cc1OC (centres unmarked) [Example 55, N,N′-2,3-butanediylbis[N-methyl-3,4-bis(methyloxy)benzenesulfonamide]] | 51 to 75 | 126 to 1000
COc1cccc(S(=O)(=O)N2C[C@@H](C)N(S(=O)(=O)c3ccc(OC)c(OC)c3)[C@@H](C)C2)c1 [Example 33, 1-{[3,4-bis(methyloxy)phenyl]sulfonyl}-2,6-cis-dimethyl-4-{[3-(methyloxy)phenyl]sulfonyl}piperazine] | 51 to 75 | 1260 to 10000
CCCN([C@H]1CCN(S(=O)(=O)c2ccc(OC)c(OC)c2)C1)S(=O)(=O)c1ccc(OC)c(OC)c1 [Example 61, N-((3S)-1-{[3,4-bis(methyloxy)phenyl]sulfonyl}-3-pyrrolidinyl)-3,4-bis(methyloxy)-N-propylbenzenesulfonamide] | 76 to 100 | 1260 to 10000
COc1ccc(S(=O)(=O)N2CCN(S(=O)(=O)c3ccc(OC)c(OC)c3)CC(F)C2)cc1OC [Example 52, 1,4-bis{[3,4-bis(methyloxy)phenyl]sulfonyl}-6-fluorohexahydro-1H-1,4-diazepine] | 76 to 100 | 126 to 1000
COc1ccc(S(=O)(=O)N2C[C@@H](C)N(S(=O)(=O)c3ccc(OC)c(OC(F)(F)F)c3)[C@@H](C)C2)cc1OC [Example 36, 4-{[3,4-bis(methyloxy)phenyl]sulfonyl}-2,6-cis-dimethyl-1-({4-(methyloxy)-3-[(trifluoromethyl)oxy]phenyl}sulfonyl)piperazine] | 51 to 75 | 126 to 1000
CCCN([C@@H]1CCN(S(=O)(=O)c2ccc(OC)c(OC)c2)C1)S(=O)(=O)c1ccc(OC)c(OC)c1 [Example 59, N-((3R)-1-{[3,4-bis(methyloxy)phenyl]sulfonyl}-3-pyrrolidinyl)-3,4-bis(methyloxy)-N-propylbenzenesulfonamide] | 76 to 100 | 126 to 1000
COc1ccc(S(=O)(=O)N[C@@H]2CCN(S(=O)(=O)c3ccc(OC)c(OC)c3)C2)cc1OC [Example 77, N-((3R)-1-{[3,4-bis(methyloxy)phenyl]sulfonyl}-3-pyrrolidinyl)-3,4-bis(methyloxy)benzenesulfonamide] | 76 to 100 | 1260 to 10000
COc1ccc(S(=O)(=O)N(C)CCN(C)S(=O)(=O)c2ccc3c(c2)OCCO3)cc1OC [Example 13, N-{2-[{[3,4-bis(methyloxy)phenyl]sulfonyl}(methyl)amino]ethyl}-N-methyl-2,3-dihydro-1,4-benzodioxin-6-sulfonamide] | 51 to 75 | 1260 to 10000
COc1ccc(S(=O)(=O)N2CCN(S(=O)(=O)c3ccc(OC)c(OC)c3)C(C)C2)cc1OC (centres unmarked) [Example 29, 1,4-bis{[3,4-bis(methyloxy)phenyl]sulfonyl}-2-methylpiperazine] | 51 to 75 | 126 to 1000
COc1ccc(S(=O)(=O)N(C)CCN(C2CC2)S(=O)(=O)c2ccc(OC)c(OC)c2)cc1OC [Example 88] | 76 to 100 | 126 to 1000
COc1ccc(S(=O)(=O)N2CC[C@H](N(C)S(=O)(=O)c3ccc(OC)c(OC)c3)C2)cc1OC (stereo in doubt) [Example 84] | 51 to 75 | 1260 to 10000
COc1ccc(S(=O)(=O)N2CCCN(S(=O)(=O)c3ccc4c(c3)OCCO4)CC2)cc1OC [Example 8, 1-{[3,4-bis(methyloxy)phenyl]sulfonyl}-4-(2,3-dihydro-1,4-benzodioxin-6-ylsulfonyl)hexahydro-1H-1,4-diazepine] | 51 to 75 | 1260 to 10000
COc1ccc(S(=O)(=O)N(C)CCN(C)S(=O)(=O)c2ccc3c(c2)OCCCO3)cc1OC [Example 73, N-{2-[{[3,4-bis(methyloxy)phenyl]sulfonyl}(methyl)amino]ethyl}-N-methyl-3,4-dihydro-2H-1,5-benzodioxepin-7-sulfonamide] | 76 to 100 | 1260 to 10000
COc1ccc(S(=O)(=O)N2CC(C)N(S(=O)(=O)c3ccc(OC)c(OC)c3)CC2C)cc1OC (centres unmarked) [Example 18, 1,4-bis{[3,4-bis(methyloxy)phenyl]sulfonyl}-2,5-dimethylpiperazine] | 51 to 75 | < 126
COc1ccc(S(=O)(=O)N2CCN(S(=O)(=O)c3ccc(OC)c(OC)c3)[C@@H](C)C2)cc1OC [Example 19, (2S)-1,4-bis{[3,4-bis(methyloxy)phenyl]sulfonyl}-2-methylpiperazine] | 76 to 100 | 1260 to 10000
COc1ccc(S(=O)(=O)N2CCC(=O)N(S(=O)(=O)c3ccc(OC)c(OC)c3)CC2)cc1OC [Example 28, 1,4-bis{[3,4-bis(methyloxy)phenyl]sulfonyl}hexahydro-5H-1,4-diazepin-5-one] | 51 to 75 | 126 to 1000
COc1ccc(S(=O)(=O)N2CC(C)(C)N(S(=O)(=O)c3ccc(OC)c(OC)c3)CC2=O)cc1OC [Example 48, 1,4-bis{[3,4-bis(methyloxy)phenyl]sulfonyl}-5,5-dimethyl-2-piperazinone] | 76 to 100 | 1260 to 10000
COc1ccc(S(=O)(=O)N(C)CCN(C)S(=O)(=O)c2ccc(OC)c(OC(F)(F)F)c2)cc1OC [Example 31, N-methyl-N-{2-[methyl({4-(methyloxy)-3 [(trifluoromethyl)oxy]phenyl}sulfonyl)amino]ethyl}-3,4-bis(methyloxy)benzenesulfonamide] | 0 to 50 | 126 to 1000
COc1ccc(S(=O)(=O)N2CCN(S(=O)(=O)c3c(C)cccc3Cl)CC2)cc1OC [Example 5, 1-{[3,4-bis(methyloxy)phenyl]sulfonyl}-4-[(2-chloro-6-methylphenyl)sulfonyl]piperazine] | 76 to 100 | 1260 to 10000
